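Five concentrations, 48 hours, 96-well plates. GI50 marks 50% less growth. At the TGI there is no net growth.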
Assays:
Assay in all cases: NCI anticancer screen, dose series, 48 h
[1] = tested on: LOX IMVI melanoma
[2] = tested on: SF-539 CNS
[3] = tested on: NCI-H226 lung
[4] = tested on: NCI-H23 lung
[5] = tested on: UACC-257 melanoma
[6] = tested on: SNB-75 CNS
[7] = tested on: SNB-19 CNS
[8] = tested on: OVCAR-5 ovarian
[9] = tested on: BT-549 breast
[10] = tested on: RXF 393 renal
[11] = tested on: IGROV1 ovarian
[12] = tested on: A549 NSCLC
[13] = tested on: HL-60(TB) leukemia
[14] = tested on: HCT-116 colon
[15] = tested on: HT29 colon
[16] = tested on: M14 melanoma
[17] = tested on: CAKI-1 renal
[18] = tested on: NCI-H460 lung
[19] = tested on: U251 CNS
[20] = tested on: 786-0 renal
[21] = tested on: NCI-H522 lung
[22] = tested on: OVCAR-4 ovarian
[23] = tested on: RPMI-8226 leukemia
[24] = tested on: KM12 colon
[25] = tested on: MALME-3M melanoma
[26] = tested on: SR leukemia
[27] = tested on: HCT-15 colon
[28] = tested on: COLO 205 colon
[29] = tested on: MCF7 breast
[30] = tested on: UACC-62 melanoma

For c1ccc(Nc2nc(-c3ccccn3)cs2)nc1, the TGI [1] was 6.67 µM, the GI50 [2] was 825 nM and the TGI [2] was > 88.7 µM. The GI50 [3] was 1000 nM, the TGI [3] was > 63.1 µM and the GI50 [4] was 972 nM. The TGI [4] was > 32.7 µM, the GI50 [5] was 496 nM and the TGI [5] was 15.4 µM. For the same molecule, the GI50 [6] was 3.03 µM, the TGI [6] was > 100 µM and the GI50 [7] was 997 nM. The TGI [7] was > 100 µM, the GI50 [8] was 2350 nM and the TGI [8] was > 100 µM. For the same molecule, the GI50 [9] was 713 nM, the TGI [9] was > 26 µM and the GI50 [10] was 1980 nM. For the same molecule, the TGI [10] was > 100 µM, the GI50 [11] was 464 nM and the TGI [11] was 5.8 µM. The GI50 [12] was 623 nM, the TGI [12] was > 35 µM and the GI50 [13] was 392 nM. The TGI [13] was 3.01 µM, the GI50 [14] was 326 nM and the TGI [14] was 21.6 µM. The GI50 [15] was 603 nM, the TGI [15] was 21.1 µM and the GI50 [16] was 258 nM. It also gave a GI50 [17] of 99.2 nM, a TGI [17] of 2120 nM and a GI50 [18] of 290 nM. The TGI [18] was 2610 nM, the GI50 [19] was 332 nM and the TGI [19] was > 43.2 µM. For the same molecule, the GI50 [20] was 344 nM, the TGI [20] was > 38.2 µM and the GI50 [21] was 253 nM. The TGI [21] was 15.1 µM, the GI50 [22] was 593 nM and the TGI [22] was > 100 µM. The GI50 [23] was 548 nM, the TGI [23] was 76.2 µM and the GI50 [24] was 381 nM. It also gave a TGI [24] of 15.9 µM, a GI50 [25] of 156 nM and a TGI [25] of 5.16 µM. It also gave a GI50 [26] of 308 nM, a TGI [26] of 7.95 µM and a GI50 [27] of 172 nM. For the same molecule, the TGI [27] was > 89.2 µM, the GI50 [28] was 411 nM and the TGI [28] was 17.5 µM. The GI50 [29] was 508 nM, the TGI [29] was > 100 µM and the GI50 [30] was 480 nM. For the same molecule, the TGI [30] was > 43 µM.
